These results are taken from US20250236629A1, “MEDIUM- OR MACRO-CYCLIC BENZYL-SUBSTITUTED HETEROCYCLE DERIVATIVES AND RELATED USES” (CENTESSA PHARMACEUTICALS (UK) LIMITED, priority 2022, published 2025).

The target in this assay is T1, human orexin type 2 receptor (hOX2R) (Homo sapiens, UniProt O43614).
T1 construct: the Orexin receptor cDNA was inserted into pcDNA3.1(+) plasmid vector; expressed in transfected cells
T1 sequence (O43614 1-444): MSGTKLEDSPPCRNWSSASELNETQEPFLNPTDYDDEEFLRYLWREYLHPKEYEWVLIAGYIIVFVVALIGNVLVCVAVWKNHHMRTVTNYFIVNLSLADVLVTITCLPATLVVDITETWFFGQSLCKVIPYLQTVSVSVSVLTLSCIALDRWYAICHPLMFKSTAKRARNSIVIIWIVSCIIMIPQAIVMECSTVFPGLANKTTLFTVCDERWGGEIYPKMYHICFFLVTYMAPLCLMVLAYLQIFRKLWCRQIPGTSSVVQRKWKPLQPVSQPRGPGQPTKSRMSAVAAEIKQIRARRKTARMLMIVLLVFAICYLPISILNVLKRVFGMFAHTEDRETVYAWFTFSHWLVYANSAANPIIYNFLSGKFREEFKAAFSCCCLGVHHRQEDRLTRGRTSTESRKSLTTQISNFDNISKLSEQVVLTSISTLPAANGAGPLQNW
Put plainly: Orexin type 2 receptor agonist activity, intracellular Ca2+ (FLIPR TETRA) in CHO cells. The format is cell-based. The conditions noted are these: CHO cells expressing hOX2R, Ca2+ fluorescence area, 100% = 10 nM human orexin A; for EC50: read-out: hOx2 pEC50 (converted). How it is done: Stable cell line generation. Obtainment of cells stably expressing either human orexin type 2 or human orexin type 1 receptor: to obtain a stable cell line the Orexin receptor cDNA was inserted into pcDNA3.1(+) plasmid vector and clones identified by G418 drug resistance selection. […] A single clone for OX2R—CHO and OX1R—CHO were grown in bulk and frozen to generate a cell bank for routine screening.
Measurement of orexin type 2 receptor agonist activity. Chinese hamster ovary (CHO) cells expressing human orexin type 2 receptor (hOX2R) or human orexin type 1 receptor (hOX1R) were seeded in each well of 384 well black clear bottom plates (BD Flacon) at 10,000 cells per well and cultured for 24 hr in an Ham's F12 (Gibco) medium containing 10% fetal calf serum (Sigma Aldrich) under the conditions of 37° C., 5% CO2. After removal of the medium, 50 μl of assay buffer 1 (0.1% bovine serum albumin (Sigma Aldrich), 20 mM HEPES (Molecular Dimensions), […] probenecid (Sigma Aldrich), 1× Calcium 5 dye (Molecular Devices) in Hank's balanced salt solution (Invitrogen)) was added, and the cells were incubated for 60 min under the conditions of 37° C., 5% CO2. A test compound was dissolved in dimethyl sulfoxide (Sigma Aldrich) to 10 mM, and then diluted with assay buffer 2 (20 mM HEPES, Hank's balanced salt solution, 0.1% bovine serum albumin). For the reaction, a test compound solution (10 μl) was added using Fluorescent Imaging Plate Reader TETRA (FLIPR TETRA: manufactured by Molecular Devices), a fluorescence value (excitation wavelength 488 nm, measurement wavelength 570 nm) of each well was measured every one second for 2 min, and the agonist activity was determined using the area of the fluorescence value as an indicator of intracellular Ca^2+ concentration. The agonist activity of the test compound was calculated assuming that the fluorescence value of the well added with only the dilution buffer was 0% and the fluorescence value of the well added with 10 nM human orexin A (Tocris) buffer was 100%.
Values of hOx2 pEC50 in Table B are presented in ranges, in which 6.0≤“+”<7.0, 7.0≤“++”<8.0, 8.0≤“+++”<9.0, and 9.0≤“++++”<10.4.

On to `CN1CCOc2c(F)cccc2-c2cccc(c2F)C[C@H]2[C@@H](NS(=O)(=O)CF)C3(CC3)CN2C1=O` [Example 8, N-((2′S,3′S)-2′,3′-difluoro-6′-methyl-5′-oxospiro[cyclopropane-1,4′-9-oxa-6-aza-4(2,1)-pyrrolidina-1(1,2),2(1,3)-dibenzenacyclononaphan]-3′-yl)-1-fluoromethanesulfonamide], for which the EC50 was 0.0398 to 1 nM. Consider `CCS(=O)(=O)N[C@H]1[C@@H](F)CN2C(=O)N(C)CCOc3c(F)cccc3-c3cccc(c3)C[C@@H]12` [Example 16, N-((4^2S,4^3R,4^4S)-1^3,4^4-difluoro-6-methyl-5-oxo-9-oxa-6-aza-4(2,1)-pyrrolidina-1(1,2),2(1,3)-dibenzenacyclononaphane-4^3-yl)ethanesulfonamide], for which the EC50 was 1 to 10 nM. Still for that read-out and setting: for `CCN1CCOc2ccccc2-c2cccc(c2)C[C@H]2[C@@H](NS(=O)(=O)C(F)F)C3(CC3)CN2C1=O` [Example 10, N-((2′S,3′S)-6′-ethyl-5′-oxospiro[cyclopropane-1,4′-9-oxa-6-aza-4(2,1)-pyrrolidina-1(1,2),2(1,3)-dibenzenacyclononaphan]-3′-yl)-1,1-difluoromethanesulfonamide] the value was 1 to 10 nM. Regarding “N-((2′S,3′S)-3′-fluoro-6′-methyl-5′-oxospiro[cyclopropane-1,4′-9-oxa-6-aza-4(2,1)-pyrrolidina-1(1,2),2(1,3)-dibenzenacyclononaphan]-3′-yl)ethanesulfonamide [Example 19]”, the “hOx2 pEC50” value is on record as “+++ (8.0≤“+++”<9.0)”. Regarding `C[C@H]1CN2C(=O)N(C)CCOc3ccccc3-c3cccc(c3F)C[C@H]2[C@H]1NS(=O)(=O)CF` [Example 2, 1-fluoro-N-((4^2S,4^3S,4^4S)-2^2-fluoro-4^4,6-dimethyl-5-oxo-9-oxa-6-aza-4(2,1)-pyrrolidina-1(1,2),2(1,3)-dibenzenacyclononaphane-4^3-yl)methanesulfonamide], the EC50 was 10 to 100 nM. On the same count and under the same terms, as for `CN1CCOc2c(F)cc(F)cc2-c2cccc(c2)C[C@H]2[C@@H](NS(=O)(=O)C(F)F)C3(CC3)CN2C1=O` [Example 31, N-((2′S,3′S)-3′,5′-difluoro-6′-methyl-5′-oxospiro[cyclopropane-1,4′-9-oxa-6-aza-4(2,1)-pyrrolidina-1(1,2),2(1,3)-dibenzenacyclononaphan]-3′-yl)-1,1-difluoromethanesulfonamide], the figure is 10 to 100 nM; as for `CCS(=O)(=O)N[C@H]1[C@@H](F)CN2C(=O)CCOc3ccccc3-c3cccc(c3F)C[C@@H]12` [Example 29, N-((4^2S,4^3R,4^4S)-2^2,4^4-difluoro-5-oxo-8-oxa-4(2,1)-pyrrolidina-1(1,2),2(1,3)-dibenzenacyclooctaphane-4^3-yl)ethanesulfonamide], 1 to 10 nM; as for `CCN1CCOc2ccccc2-c2cccc(c2)C[C@H]2[C@@H](NS(=O)(=O)CF)C3(CC3)CN2C1=O` [Example 37, N-((2′S,3′S)-6′-ethyl-5′-oxospiro[cyclopropane-1,4′-9-oxa-6-aza-4(2,1)-pyrrolidina-1(1,2),2(1,3)-dibenzenacyclononaphan]-3′-yl)-1-fluoromethanesulfonamide], 0.0398 to 1 nM.

Consider `CCS(=O)(=O)N[C@H]1CCCN2C(=O)CCOc3ccccc3-c3cccc(c3F)C[C@@H]12` [Example 27, N-((4^2S,4^3S)-22-fluoro-5-oxo-8-oxa-4(2,1)-piperidina-1(1,2),2(1,3)-dibenzenacyclooctaphane-4^3-yl)ethanesulfonamide], for which the EC50 is 1 to 10 nM. As to `O=C1CCOc2ccccc2-c2cccc(c2)C[C@H]2[C@@H](NS(=O)(=O)C3(F)CC3)CCCN12` [Example 50, 1-fluoro-N-((4^2S,4^3S)-5-oxo-8-oxa-4 (2,1)-piperidina-1 (1,2),2 (1,3)-dibenzenacyclooctaphane-4^3-yl)cyclopropane-1-sulfonamide], the EC50 was 0.0398 to 1 nM. The same measure, in the same setting: as for `CN1CCOc2c(F)cccc2-c2cccc(c2)C[C@H]2[C@@H](NS(=O)(=O)CF)C3(CC3)CN2C1=O` [Example 30, 1-fluoro-N-((2′S,3′S)-3′-fluoro-6′-methyl-5′-oxospiro[cyclopropane-1,4′-9-oxa-6-aza-4(2,1)-pyrrolidina-1(1,2),2(1,3)-dibenzenacyclononaphan]-3′-yl)methanesulfonamide], the figure is 10 to 100 nM; as for `O=C1CCOc2c(F)cccc2-c2cccc(c2)C[C@H]2[C@@H](NS(=O)(=O)C(F)F)CCCN12` [Example 24, 1,1-difluoro-N-((4^2S,4^3S)-1^3-fluoro-5-oxo-8-oxa-4(2,1)-piperidina-1(1,2),2(1,3)-dibenzenacyclooctaphane-4^3-yl)methanesulfonamide], 1 to 10 nM; as for `CC(C)S(=O)(=O)N[C@H]1CCCN2C(=O)CCOc3ccccc3-c3cccc(c3F)C[C@@H]12` [Example 3, N-((4^2S,4^3S)-22-fluoro-5-oxo-8-oxa-4(2,1)-piperidina-1(1,2),2(1,3)-dibenzenacyclooctaphane-4^3-yl)propane-2-sulfonamide], 0.0398 to 1 nM.

Consider `CN1CCOc2ccccc2-c2cccc(c2F)C[C@H]2[C@@H](NS(=O)(=O)CF)C3(CC3)CN2C1=O` [Example 25, 1-fluoro-N-((2′S,3′S)-2′-fluoro-6′-methyl-5′-oxospiro[cyclopropane-1,4′-9-oxa-6-aza-4(2,1)-pyrrolidina-1(1,2),2(1,3)-dibenzenacyclononaphan]-3′-yl)methanesulfonamide], for which the EC50 was 1 to 10 nM.

As for `CC(C)(F)S(=O)(=O)N[C@H]1CCCN2C(=O)CCOc3ccccc3-c3cccc(c3F)C[C@@H]12` [Example 33, 2-fluoro-N-((4^2S,4^3S)-2^2-fluoro-5-oxo-8-oxa-4(2,1)-piperidina-1(1,2),2(1,3)-dibenzenacyclooctaphane-4^3-yl)propane-2-sulfonamide], the EC50 was 1 to 10 nM.

In the case of `O=C1CCOc2c(F)cc(F)cc2-c2cccc(c2)C[C@H]2[C@@H](NS(=O)(=O)C(F)F)CCCN12` [Example 14, N-((4^2S,4^3S)-1^3,1^5-difluoro-5-oxo-8-oxa-4(2,1)-piperidina-1(1,2),2(1,3)-dibenzenacyclooctaphane-4^3-yl)-1,1-difluoromethanesulfonamide], the EC50 is 1 to 10 nM.

On to `O=C1CCOc2c(F)cccc2-c2cccc(c2)C[C@H]2[C@@H](NS(=O)(=O)C3(F)CC3)[C@@H](F)CCN12` [Example 46, N-((4^2S,4^3R,4^4S)-1^3,4^4-difluoro-5-oxo-8-oxa-4 (2,1)-piperidina-1 (1,2),2 (1,3)-dibenzenacyclooctaphane-4^3-yl)-1-fluorocyclopropane-1-sulfonamide], for which the EC50 was 0.0398 to 1 nM. Turning to `O=C1CCOc2ccccc2-c2cccc(c2)C[C@H]2[C@@H](NS(=O)(=O)C(F)F)CCCN12` [Example 26, 1,1-difluoro-N-((4^2S,4^3S)-5-oxo-8-oxa-4(2,1)-piperidina-1(1,2),2(1,3)-dibenzenacyclooctaphane-4^3-yl)methanesulfonamide], the EC50 is 1 to 10 nM. For the molecule `CN1CCOc2c(F)cc(F)cc2-c2cccc(c2F)C[C@H]2[C@@H](NS(=O)(=O)C(F)F)C3(CC3)CN2C1=O` [Example 39, 1,1-difluoro-N-((2′S,3′S)-2′,3′,5′-trifluoro-6′-methyl-5′-oxospiro[cyclopropane-1,4′-9-oxa-6-aza-4(2,1)-pyrrolidina-1(1,2),2(1,3)-dibenzenacyclononaphan]-3′-yl)methanesulfonamide], the EC50 was 1 to 10 nM. In the case of `CCS(=O)(=O)N[C@H]1[C@@H](F)CN2C(=O)N(C)CCOc3c(F)cccc3-c3cccc(c3F)C[C@@H]12` [Example 18, N-((4^2S,4^3R,4^4S)-1^3,2^2,4^4-trifluoro-6-methyl-5-oxo-9-oxa-6-aza-4(2,1)-pyrrolidina-1(1,2),2(1,3)-dibenzenacyclononaphane-4^3-yl)ethanesulfonamide], the EC50 is 1 to 10 nM.
